From ChEMBL document CHEMBL1687838, “The in vitro contribution of autolysins to bacterial killing elicited by amoxicillin increases with inoculum size in Enterococcus faecalis” (2011)
Converted amounts (≈) assume the structure as drawn. The source made the active and inactive calls. The rule behind the calls is not given here.

Key:
Enterococcus faecalis [1] = experiment: Bactericidal activity against 5 X 10^8 CFU/ml Enterococcus faecalis JH2-2 at 2 ug/ml after 6 hrs by time kill analysis; format: functional
Enterococcus faecalis [2] = experiment: Antibacterial activity against Enterococcus faecalis JH2-2 by CLSI method; format: functional
Enterococcus faecalis [3] = experiment: Bactericidal activity against 5 X 10^8 CFU/ml Enterococcus faecalis JH2-2 harboring deletion at AltA, AltB and AltC gene at 2 ug/ml after 6 hrs by time kill analysis; format: functional
Enterococcus faecalis [4] = experiment: Bactericidal activity against 5 X 10^6 CFU/ml Enterococcus faecalis JH2-2 harboring deletion at AltA, AltB and AltC gene at 2 ug/ml after 6 hrs by time kill analysis; format: functional
Enterococcus faecalis [5] = experiment: Bactericidal activity against 5 X 10^6 CFU/ml Enterococcus faecalis JH2-2 at 2 ug/ml after 24 hrs by time kill analysis; format: functional
Enterococcus faecalis [6] = experiment: Bactericidal activity against 5 X 10^6 CFU/ml Enterococcus faecalis JH2-2 harboring deletion at AltA, AltB and AltC gene at 2 ug/ml after 24 hrs by time kill analysis; format: functional
Enterococcus faecalis [7] = experiment: Antibacterial activity against Enterococcus faecalis JH2-2 harboring deletion at AltA, AltB and AltC gene assessed as induction of membrane permeabilization at 2 ug/ml after 3 hrs by propidium iodide and Syto9 staining based confocal microscopic analysis; format: functional, organism-based
Enterococcus faecalis [8] = experiment: Bactericidal activity against 5 X 10^6 CFU/ml Enterococcus faecalis JH2-2 at 2 ug/ml after 6 hrs by time kill analysis; format: functional
Enterococcus faecalis [9] = experiment: Bactericidal activity against 5 X 10^6 CFU/ml Enterococcus faecalis JH2-2 at 2 ug/ml after 3 hrs by time kill analysis; format: functional
Enterococcus faecalis [10] = experiment: Bactericidal activity against 5 X 10^6 CFU/ml Enterococcus faecalis JH2-2 harboring deletion at AltA, AltB and AltC gene at 2 ug/ml after 3 hrs by time kill analysis; format: functional
Enterococcus faecalis [11] = experiment: Bactericidal activity against 5 X 10^8 CFU/ml Enterococcus faecalis JH2-2 harboring deletion at AltA, AltB and AltC gene at 2 ug/ml after 24 hrs by time kill analysis; format: functional
Enterococcus faecalis [12] = experiment: (§1) Bactericidal activity against 5 X 10^8 CFU/ml Enterococcus faecalis JH2-2 infected in rabbit assessed as bacterial load per gram of vegetation at 50 mg/kg, im administered three times a day starting 48 hrs post-infection measured after 24 hrs by time kill analysis (reference value: 9.29+- 0.83 log10 CFU/g); format: functional; conditions: route intramuscular
Enterococcus faecalis [13] = experiment: Antibacterial activity against Enterococcus faecalis JH2-2 assessed as induction of membrane permeabilization at 2 ug/ml after 3 hrs by propidium iodide and Syto9 staining based confocal microscopic analysis; format: functional, organism-based
Enterococcus faecalis [14] = experiment: Bactericidal activity against 5 X 10^8 CFU/ml Enterococcus faecalis JH2-2 at 2 ug/ml after 3 hrs by time kill analysis; format: functional
Enterococcus faecalis [15] = experiment: Antibacterial activity against Enterococcus faecalis JH2-2 harboring deletion at AltA, AltB and AltC gene by CLSI method; format: functional
Enterococcus faecalis [16] = experiment: as §1, with “JH2-2 harboring deletion at AltA, AltB and AltC gene” for “JH2-2”, “8.69+- 1.19” for “9.29+- 0.83”; format: functional; conditions: route intramuscular
Enterococcus faecalis [17] = experiment: Bactericidal activity against 5 X 10^8 CFU/ml Enterococcus faecalis JH2-2 harboring deletion at AltA, AltB and AltC gene at 2 ug/ml after 3 hrs by time kill analysis; format: functional
Enterococcus faecalis [18] = experiment: Bactericidal activity against 5 X 10^8 CFU/ml Enterococcus faecalis JH2-2 at 2 ug/ml after 24 hrs by time kill analysis; format: functional

## CC1(C)S[C@@H]2[C@H](NC(=O)[C@H](N)c3ccc(O)cc3)C(=O)N2[C@H]1C(=O)O [AMOXICILLIN]
Enterococcus faecalis [1]
  log10CFU/ml: 4.59
Enterococcus faecalis [2]
  MIC: 0.5 µg/mL (≈ 1.37 µM)
Enterococcus faecalis [3]
  log10CFU/ml: 0.79
Enterococcus faecalis [4]
  log10CFU/ml: 1.45
Enterococcus faecalis [5]
  log10CFU/ml: 2.48
Enterococcus faecalis [6]
  log10CFU/ml: 4.44
Enterococcus faecalis [7]
  Activity: Active
Enterococcus faecalis [8]
  log10CFU/ml: 4.86
Enterococcus faecalis [9]
  log10CFU/ml: 2.07
Enterococcus faecalis [10]
  log10CFU/ml: 3.15
Enterococcus faecalis [11]
  log10CFU/ml: 2.46
Enterococcus faecalis [12]
  log10CFU/g: 7.69
Enterococcus faecalis [13]
  Activity: Active
Enterococcus faecalis [14]
  log10CFU/ml: 1.73
Enterococcus faecalis [15]
  MIC: 0.5 µg/mL (≈ 1.37 µM)
Enterococcus faecalis [16]
  log10CFU/g: 7.5
Enterococcus faecalis [17]
  log10CFU/ml: 2.83
Enterococcus faecalis [18]
  log10CFU/ml: 1.1
